Data on seven compounds can be found in ChEMBL document CHEMBL1134077, “Synthesis of potent and selective dopamine D(4) antagonists as candidate radioligands” (Bioorg Med Chem Lett, 2001).

In experiment [1] the target is 5-hydroxytryptamine receptor 2A (Homo sapiens, UniProt P28223). Nature of the experiment: Binding affinity to cloned human 5-hydroxytryptamine 2A receptor.
A further experiment concerns the target D(3) dopamine receptor (Rattus norvegicus, UniProt P19020). Nature of the experiment: In vitro binding affinity to cloned rat Dopamine receptor D3 measured by displacement of the radioligand [3H]sulpiride. Details: […].
In the next experiment the target is D(1B) dopamine receptor (Rattus norvegicus, UniProt P25115). Nature of the experiment: In vitro binding affinity to cloned rat D5 receptor measured by displacement of radioligand [3H]SCH-23,982.
Chain of D(1B) dopamine receptor (P25115 whole entry): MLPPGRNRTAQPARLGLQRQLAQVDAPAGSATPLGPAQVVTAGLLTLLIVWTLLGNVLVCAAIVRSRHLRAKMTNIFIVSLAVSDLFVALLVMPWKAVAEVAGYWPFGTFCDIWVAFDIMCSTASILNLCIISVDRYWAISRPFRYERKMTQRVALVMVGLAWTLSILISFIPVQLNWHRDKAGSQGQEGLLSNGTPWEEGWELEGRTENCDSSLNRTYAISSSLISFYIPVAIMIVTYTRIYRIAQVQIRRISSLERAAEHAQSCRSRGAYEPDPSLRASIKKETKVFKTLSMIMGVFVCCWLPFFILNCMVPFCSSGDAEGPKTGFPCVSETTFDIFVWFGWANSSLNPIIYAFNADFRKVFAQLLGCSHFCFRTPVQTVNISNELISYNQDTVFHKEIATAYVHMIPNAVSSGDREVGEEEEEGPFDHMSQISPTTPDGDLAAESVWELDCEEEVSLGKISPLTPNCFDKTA
The target of experiment [2] is Kappa-type opioid receptor (Homo sapiens, UniProt P41145). Briefly: Binding affinity to cloned Opioid receptor kappa 1.
In experiment [3] the target is Muscarinic acetylcholine receptor M3 (Homo sapiens, UniProt P20309). Briefly: Binding affinity to cloned Muscarinic acetylcholine receptor M3.
Chain of Muscarinic acetylcholine receptor M3 (P20309 whole entry): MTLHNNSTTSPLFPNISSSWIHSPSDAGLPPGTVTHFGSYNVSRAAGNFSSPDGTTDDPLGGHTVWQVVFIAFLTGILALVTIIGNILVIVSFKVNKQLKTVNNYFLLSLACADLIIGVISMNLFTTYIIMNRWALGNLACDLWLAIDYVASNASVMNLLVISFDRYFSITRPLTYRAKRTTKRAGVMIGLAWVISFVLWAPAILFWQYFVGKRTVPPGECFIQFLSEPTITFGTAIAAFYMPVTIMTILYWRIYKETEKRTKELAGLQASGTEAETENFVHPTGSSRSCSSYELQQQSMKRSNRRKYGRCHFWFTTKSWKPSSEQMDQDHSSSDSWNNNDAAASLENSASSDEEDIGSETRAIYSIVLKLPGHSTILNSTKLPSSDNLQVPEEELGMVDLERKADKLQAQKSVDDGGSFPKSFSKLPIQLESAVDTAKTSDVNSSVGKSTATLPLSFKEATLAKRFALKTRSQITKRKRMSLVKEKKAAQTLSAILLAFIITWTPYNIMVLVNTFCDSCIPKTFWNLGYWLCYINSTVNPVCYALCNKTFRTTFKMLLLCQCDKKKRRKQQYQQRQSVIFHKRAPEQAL
A further experiment addresses D(1A) dopamine receptor (Rattus norvegicus, UniProt P18901). Briefly: In vitro binding affinity to cloned rat Dopamine receptor D1 measured by displacement of radioligand [3H]SCH-23,982. Details: […].
Experiment [4] in a line: Binding affinity to cloned Nicotinic acetylcholine receptors. Details: species or system Rattus norvegicus.
The target in experiment [5] is 5-hydroxytryptamine receptor 6 (Homo sapiens, UniProt P50406). Briefly: In vitro binding affinity to human 5-hydroxytryptamine 6 receptor.
Chain of 5-hydroxytryptamine receptor 6 (P50406 whole entry): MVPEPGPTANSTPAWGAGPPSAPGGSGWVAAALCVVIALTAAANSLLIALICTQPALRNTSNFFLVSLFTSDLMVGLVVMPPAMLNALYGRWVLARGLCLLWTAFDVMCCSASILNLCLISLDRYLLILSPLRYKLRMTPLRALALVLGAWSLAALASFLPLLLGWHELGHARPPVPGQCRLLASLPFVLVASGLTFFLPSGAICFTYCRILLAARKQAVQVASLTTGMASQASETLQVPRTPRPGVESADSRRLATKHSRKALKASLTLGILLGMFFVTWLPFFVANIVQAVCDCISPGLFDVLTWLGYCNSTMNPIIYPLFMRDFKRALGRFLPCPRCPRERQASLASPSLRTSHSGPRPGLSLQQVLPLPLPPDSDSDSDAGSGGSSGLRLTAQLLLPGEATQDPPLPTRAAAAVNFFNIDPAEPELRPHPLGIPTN
Experiment [6] deals with T1, Muscarinic acetylcholine receptor M4 (Homo sapiens, UniProt P08173).
T1 sequence (P08173 whole entry): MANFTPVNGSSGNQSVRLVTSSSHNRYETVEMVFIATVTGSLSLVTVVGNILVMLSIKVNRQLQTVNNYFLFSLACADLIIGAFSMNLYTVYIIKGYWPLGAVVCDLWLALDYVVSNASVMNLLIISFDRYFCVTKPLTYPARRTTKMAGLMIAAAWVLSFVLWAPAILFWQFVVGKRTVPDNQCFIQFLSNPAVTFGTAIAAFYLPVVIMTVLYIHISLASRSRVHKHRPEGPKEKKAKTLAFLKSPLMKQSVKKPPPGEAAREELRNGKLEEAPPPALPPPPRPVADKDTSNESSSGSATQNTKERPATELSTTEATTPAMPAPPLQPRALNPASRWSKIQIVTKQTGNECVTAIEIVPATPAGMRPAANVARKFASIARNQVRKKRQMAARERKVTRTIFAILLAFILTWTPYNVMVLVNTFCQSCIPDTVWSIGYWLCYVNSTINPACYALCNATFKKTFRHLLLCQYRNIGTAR
Briefly: Binding affinity to cloned Muscarinic acetylcholine receptor M4.

For experiment [7], the target named is Glutamate [NMDA] receptor. Briefly: Binding affinity for N-methyl-D-aspartate glutamate receptor. The format is protein-complex assay.
The next experiment addresses T2, D(4) dopamine receptor (Rattus norvegicus, UniProt P30729).
T2 sequence (P30729 whole entry): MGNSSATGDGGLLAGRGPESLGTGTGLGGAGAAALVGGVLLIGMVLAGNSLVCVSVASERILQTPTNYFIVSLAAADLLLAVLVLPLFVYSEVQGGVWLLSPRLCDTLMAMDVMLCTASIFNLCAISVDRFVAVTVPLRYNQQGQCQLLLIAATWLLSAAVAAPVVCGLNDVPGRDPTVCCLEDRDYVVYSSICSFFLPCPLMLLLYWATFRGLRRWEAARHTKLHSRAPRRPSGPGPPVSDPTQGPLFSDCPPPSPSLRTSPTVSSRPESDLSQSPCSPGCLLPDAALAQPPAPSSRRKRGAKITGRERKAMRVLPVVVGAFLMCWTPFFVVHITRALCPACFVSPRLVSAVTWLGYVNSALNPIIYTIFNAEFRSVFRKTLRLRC
Nature of the experiment: In vitro binding affinity to rat Dopamine receptor D4 measured by displacement of the radioligand [3H]spiperone.

Experiment [8] concerns the target Delta-type opioid receptor (Homo sapiens, UniProt P41143). Briefly: Binding affinity to cloned Opioid receptor delta 1.
Another experiment concerns the target D(2) dopamine receptor (Rattus norvegicus, UniProt P61169). Briefly: In vitro binding affinity to rat Dopamine receptor D2 measured by displacement of the radioligand [3H]spiperone.
A further experiment addresses Histamine H1 receptor (Homo sapiens, UniProt P35367). Briefly: Binding affinity to cloned Histamine H1 receptor.
The target of experiment [9] is 5-hydroxytryptamine receptor 7 (Homo sapiens, UniProt P34969). Briefly: In vitro binding affinity to human 5-hydroxytryptamine 7 receptor.
Chain of 5-hydroxytryptamine receptor 7 (P34969 whole entry): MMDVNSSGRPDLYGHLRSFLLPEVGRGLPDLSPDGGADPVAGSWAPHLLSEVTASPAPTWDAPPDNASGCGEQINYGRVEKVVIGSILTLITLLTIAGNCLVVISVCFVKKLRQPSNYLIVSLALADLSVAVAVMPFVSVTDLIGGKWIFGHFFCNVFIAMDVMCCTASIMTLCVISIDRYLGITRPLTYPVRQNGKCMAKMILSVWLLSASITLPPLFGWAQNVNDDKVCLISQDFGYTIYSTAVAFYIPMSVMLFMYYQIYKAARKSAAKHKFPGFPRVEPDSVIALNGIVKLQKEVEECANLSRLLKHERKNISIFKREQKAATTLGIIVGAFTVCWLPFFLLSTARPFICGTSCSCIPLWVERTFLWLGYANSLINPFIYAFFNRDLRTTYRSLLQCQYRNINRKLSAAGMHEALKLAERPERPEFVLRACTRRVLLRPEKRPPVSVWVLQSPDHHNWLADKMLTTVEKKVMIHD
Experiment [10] deals with T3, 5-hydroxytryptamine receptor 1A (Homo sapiens, UniProt P08908).
T3 sequence (P08908 whole entry): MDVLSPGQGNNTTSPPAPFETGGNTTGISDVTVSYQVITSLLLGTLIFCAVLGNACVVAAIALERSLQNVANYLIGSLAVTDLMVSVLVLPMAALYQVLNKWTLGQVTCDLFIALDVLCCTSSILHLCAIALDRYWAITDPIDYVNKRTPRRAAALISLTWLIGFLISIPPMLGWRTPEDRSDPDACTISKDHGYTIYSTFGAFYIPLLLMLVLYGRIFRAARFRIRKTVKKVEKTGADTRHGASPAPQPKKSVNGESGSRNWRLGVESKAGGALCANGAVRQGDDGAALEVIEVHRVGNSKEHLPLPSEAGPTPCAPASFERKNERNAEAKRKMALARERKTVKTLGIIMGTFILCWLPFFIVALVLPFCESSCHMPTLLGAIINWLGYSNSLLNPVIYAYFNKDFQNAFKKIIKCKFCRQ
Nature of the experiment: In vitro binding affinity to human 5-hydroxytryptamine 1A receptor.

Experiment [11] has as its target 5-hydroxytryptamine receptor 5A (Homo sapiens, UniProt P47898). Nature of the experiment: Binding affinity to cloned human 5-hydroxytryptamine 5A receptor.
Experiment [12] concerns the target 5-hydroxytryptamine receptor 1B (Homo sapiens, UniProt P28222). Briefly: Binding affinity to cloned human 5-hydroxytryptamine 1B receptor.
A further experiment deals with Glutamate NMDA receptor. Nature of the experiment: Binding affinity to PCP site of rat N-methyl-D-aspartate glutamate receptor. The format is protein-complex assay.
Experiment [13] has as its target T4, Muscarinic acetylcholine receptor M5 (Homo sapiens, UniProt P08912).
T4 sequence (P08912 whole entry): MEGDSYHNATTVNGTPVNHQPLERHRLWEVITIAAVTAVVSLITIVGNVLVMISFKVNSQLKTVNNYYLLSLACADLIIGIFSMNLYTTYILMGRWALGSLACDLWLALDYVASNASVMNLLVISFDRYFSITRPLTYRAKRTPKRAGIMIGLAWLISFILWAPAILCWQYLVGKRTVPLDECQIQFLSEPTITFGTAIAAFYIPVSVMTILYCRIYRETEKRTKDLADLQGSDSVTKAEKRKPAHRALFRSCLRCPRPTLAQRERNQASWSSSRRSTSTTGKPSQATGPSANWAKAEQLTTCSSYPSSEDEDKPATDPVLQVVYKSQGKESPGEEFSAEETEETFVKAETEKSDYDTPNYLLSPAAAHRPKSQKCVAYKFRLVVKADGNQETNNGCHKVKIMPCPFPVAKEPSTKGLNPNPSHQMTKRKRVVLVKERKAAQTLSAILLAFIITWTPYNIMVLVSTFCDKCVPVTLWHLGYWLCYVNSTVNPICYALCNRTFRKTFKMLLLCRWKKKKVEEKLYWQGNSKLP
Briefly: Binding affinity to cloned Muscarinic acetylcholine receptor M5.

SMILES strings stand for the structures.

Chain of Delta-type opioid receptor (P41143 whole entry): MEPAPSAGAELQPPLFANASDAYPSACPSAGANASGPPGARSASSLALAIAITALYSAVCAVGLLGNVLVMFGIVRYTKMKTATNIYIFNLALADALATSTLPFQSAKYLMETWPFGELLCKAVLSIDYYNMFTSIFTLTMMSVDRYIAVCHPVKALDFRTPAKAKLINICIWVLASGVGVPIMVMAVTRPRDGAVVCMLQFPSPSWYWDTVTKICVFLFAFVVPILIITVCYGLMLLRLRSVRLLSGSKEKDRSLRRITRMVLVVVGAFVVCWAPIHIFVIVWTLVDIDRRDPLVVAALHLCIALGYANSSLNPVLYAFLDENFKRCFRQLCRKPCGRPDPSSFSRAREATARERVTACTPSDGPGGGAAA
Chain of D(3) dopamine receptor (P19020 whole entry): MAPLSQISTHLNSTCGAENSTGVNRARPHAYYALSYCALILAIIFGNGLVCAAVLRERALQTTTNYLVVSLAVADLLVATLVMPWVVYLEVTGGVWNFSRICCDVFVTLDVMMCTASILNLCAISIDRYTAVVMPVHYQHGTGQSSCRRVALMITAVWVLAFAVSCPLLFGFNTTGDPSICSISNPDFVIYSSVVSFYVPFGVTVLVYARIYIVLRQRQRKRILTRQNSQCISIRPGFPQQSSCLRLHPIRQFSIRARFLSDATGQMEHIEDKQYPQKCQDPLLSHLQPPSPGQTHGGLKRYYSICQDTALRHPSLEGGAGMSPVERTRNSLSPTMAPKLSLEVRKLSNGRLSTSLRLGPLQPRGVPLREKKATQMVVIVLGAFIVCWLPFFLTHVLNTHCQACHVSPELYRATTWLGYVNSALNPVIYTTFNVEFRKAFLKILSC
Chain of 5-hydroxytryptamine receptor 1B (P28222 whole entry): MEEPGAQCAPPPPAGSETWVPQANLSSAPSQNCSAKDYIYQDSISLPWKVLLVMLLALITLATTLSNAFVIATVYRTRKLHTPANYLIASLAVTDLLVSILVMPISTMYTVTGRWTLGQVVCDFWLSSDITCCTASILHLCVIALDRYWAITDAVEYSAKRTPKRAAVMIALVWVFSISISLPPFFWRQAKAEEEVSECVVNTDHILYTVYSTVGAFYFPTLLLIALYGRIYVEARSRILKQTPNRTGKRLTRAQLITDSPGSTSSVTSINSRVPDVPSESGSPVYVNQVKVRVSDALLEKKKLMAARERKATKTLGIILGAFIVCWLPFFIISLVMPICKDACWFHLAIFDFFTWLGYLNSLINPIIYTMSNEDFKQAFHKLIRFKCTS
Chain of D(1A) dopamine receptor (P18901 whole entry): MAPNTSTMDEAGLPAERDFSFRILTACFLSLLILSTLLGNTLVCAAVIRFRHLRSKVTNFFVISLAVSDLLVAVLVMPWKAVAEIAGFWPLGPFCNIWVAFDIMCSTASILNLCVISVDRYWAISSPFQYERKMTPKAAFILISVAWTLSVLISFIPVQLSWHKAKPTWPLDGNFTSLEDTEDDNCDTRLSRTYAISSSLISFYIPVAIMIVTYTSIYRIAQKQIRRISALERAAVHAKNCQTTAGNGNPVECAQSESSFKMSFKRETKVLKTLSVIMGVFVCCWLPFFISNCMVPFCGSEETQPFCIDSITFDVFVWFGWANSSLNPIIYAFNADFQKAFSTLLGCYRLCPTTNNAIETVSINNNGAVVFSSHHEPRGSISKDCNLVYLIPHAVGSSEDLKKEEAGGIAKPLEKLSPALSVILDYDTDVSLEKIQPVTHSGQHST
Chain of 5-hydroxytryptamine receptor 2A (P28223 whole entry): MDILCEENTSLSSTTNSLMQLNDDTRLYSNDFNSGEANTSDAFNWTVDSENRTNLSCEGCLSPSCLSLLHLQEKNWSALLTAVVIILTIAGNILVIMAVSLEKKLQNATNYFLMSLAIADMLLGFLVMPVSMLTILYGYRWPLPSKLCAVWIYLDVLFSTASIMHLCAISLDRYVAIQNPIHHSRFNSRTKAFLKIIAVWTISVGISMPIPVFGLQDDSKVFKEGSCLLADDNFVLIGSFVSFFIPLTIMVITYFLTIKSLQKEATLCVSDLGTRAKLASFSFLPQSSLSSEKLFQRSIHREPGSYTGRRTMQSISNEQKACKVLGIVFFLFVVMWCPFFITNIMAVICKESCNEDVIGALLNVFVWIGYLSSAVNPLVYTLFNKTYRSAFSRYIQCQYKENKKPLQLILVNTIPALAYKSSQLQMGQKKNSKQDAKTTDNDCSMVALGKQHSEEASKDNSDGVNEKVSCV
Chain of Histamine H1 receptor (P35367 whole entry): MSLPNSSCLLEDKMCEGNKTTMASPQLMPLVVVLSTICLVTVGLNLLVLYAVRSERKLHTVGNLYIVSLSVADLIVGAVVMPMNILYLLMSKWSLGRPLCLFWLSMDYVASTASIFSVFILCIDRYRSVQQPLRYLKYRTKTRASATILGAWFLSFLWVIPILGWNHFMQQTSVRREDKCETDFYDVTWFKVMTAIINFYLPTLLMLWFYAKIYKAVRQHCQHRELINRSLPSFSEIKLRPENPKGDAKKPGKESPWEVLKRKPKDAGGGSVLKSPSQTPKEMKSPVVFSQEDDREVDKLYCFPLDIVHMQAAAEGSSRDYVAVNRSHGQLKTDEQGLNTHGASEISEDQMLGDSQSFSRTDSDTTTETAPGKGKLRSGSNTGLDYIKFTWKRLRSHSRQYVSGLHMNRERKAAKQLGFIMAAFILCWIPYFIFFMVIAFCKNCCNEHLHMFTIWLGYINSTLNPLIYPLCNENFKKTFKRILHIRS
Chain of 5-hydroxytryptamine receptor 5A (P47898 whole entry): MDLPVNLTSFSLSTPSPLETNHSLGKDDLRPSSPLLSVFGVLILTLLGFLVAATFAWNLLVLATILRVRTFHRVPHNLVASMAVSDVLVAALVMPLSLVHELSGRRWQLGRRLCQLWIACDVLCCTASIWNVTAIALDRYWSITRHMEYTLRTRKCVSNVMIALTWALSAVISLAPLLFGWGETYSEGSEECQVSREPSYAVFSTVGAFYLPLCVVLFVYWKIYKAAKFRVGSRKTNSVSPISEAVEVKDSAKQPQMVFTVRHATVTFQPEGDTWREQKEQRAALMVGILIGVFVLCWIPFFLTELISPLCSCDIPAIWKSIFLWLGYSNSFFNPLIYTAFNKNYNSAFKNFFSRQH

What is called Ki is the dissociation constant of the complex between target and ligand, obtained from inhibition or displacement. Read a high Ki as lower affinity. Take `Fc1ccccc1N1CCN(Cc2c[nH]c3ncccc23)CC1`: the Ki is 0.242 µM in experiment [1]; greater than 10 µM at D(3) dopamine receptor; greater than 10 µM on D(1B) dopamine receptor; greater than 10 µM in experiment [2]; greater than 10 µM in experiment [3]; greater than 10 µM at D(1A) dopamine receptor. In addition, the Ki was greater than 10 µM in experiment [4]; greater than 10 µM in [5]; greater than 10 µM in experiment [6]; greater than 10 µM in [7]; 0.0033 µM on D(4) dopamine receptor; greater than 10 µM in experiment [8]. Moreover, the Ki is greater than 10 µM on D(2) dopamine receptor; greater than 10 µM at Histamine H1 receptor; 0.213 µM in [9]; 0.991 µM in experiment [10]; greater than 10 µM in experiment [11]; greater than 10 µM in [12]. Moreover, the Ki (on Glutamate NMDA receptor; in experiment [13]) was greater than 10 µM in each case.
For `COc1ccc(N2CCN(Cc3c[nH]c4ncccc34)CC2)cc1`, the inhibition constant Ki (in [1]; at D(3) dopamine receptor; on D(1B) dopamine receptor; in experiment [2]; in experiment [3]; at D(1A) dopamine receptor) was greater than 10 µM throughout. For the same compound, the Ki was greater than 10 µM in [4]; greater than 10 µM in experiment [5]; greater than 10 µM in experiment [6]; greater than 10 µM in [7]; 0.0036 µM at D(4) dopamine receptor; greater than 10 µM in experiment [8]. The Ki (on D(2) dopamine receptor; on Histamine H1 receptor; in experiment [9]; in [10]; in [11]; in experiment [12]) was greater than 10 µM throughout. In addition, the Ki (on Glutamate NMDA receptor; in experiment [13]) was greater than 10 µM each time.
Regarding `CSc1ccc(N2CCN(Cc3c[nH]c4ncccc34)CC2)cc1`, the Ki in [1] is greater than 10 µM; on D(3) dopamine receptor it was 0.0457 µM; at D(1B) dopamine receptor, greater than 10 µM; in experiment [2], greater than 10 µM; in [3], greater than 10 µM; at D(1A) dopamine receptor it was greater than 10 µM. Moreover, the Ki was greater than 10 µM in experiment [4]; greater than 10 µM in experiment [5]; greater than 10 µM in experiment [6]; greater than 10 µM in experiment [7]; 0.0047 µM at D(4) dopamine receptor; greater than 10 µM in [8]. The Ki at D(2) dopamine receptor is greater than 10 µM; at Histamine H1 receptor, greater than 10 µM; in [9], 0.336 µM; in experiment [10], greater than 10 µM; in experiment [11], greater than 10 µM; in experiment [12] it was greater than 10 µM. For the same compound, the Ki (at Glutamate NMDA receptor; in experiment [13]) was greater than 10 µM each time.
As to `CCCc1ccc(N2CCN(Cc3c[nH]c4ncccc34)CC2)cc1`, the Ki in experiment [1] is greater than 10 µM; on D(3) dopamine receptor, 0.921 µM; on D(1B) dopamine receptor, greater than 10 µM; in experiment [2], greater than 10 µM; in [3], greater than 10 µM; on D(1A) dopamine receptor, greater than 10 µM. For the same compound, the Ki in experiment [4] was greater than 10 µM; in experiment [5], 6.49 µM; in experiment [6], greater than 10 µM; in [7], greater than 10 µM; on D(4) dopamine receptor it was 0.0067 µM; in [8] it was greater than 10 µM. Also, the Ki on D(2) dopamine receptor is greater than 10 µM; at Histamine H1 receptor, greater than 10 µM; in [9], 0.713 µM; in [10] it was greater than 10 µM; in experiment [11], greater than 10 µM; in experiment [12], greater than 10 µM. Also, the Ki (at Glutamate NMDA receptor; in [13]) was greater than 10 µM throughout.
In the case of `Fc1ccc(N2CCN(Cc3c[nH]c4ncccc34)CC2)cc1`, the Ki in experiment [1] was 0.232 µM; on D(3) dopamine receptor it was greater than 10 µM; on D(1B) dopamine receptor it was greater than 10 µM; in [2] it was greater than 10 µM; in experiment [3], greater than 10 µM; on D(1A) dopamine receptor, greater than 10 µM. In addition, the Ki in experiment [4] is greater than 10 µM; in experiment [5] it was greater than 10 µM; in experiment [6] it was greater than 10 µM; in experiment [7], greater than 10 µM; at D(4) dopamine receptor, 0.0023 µM; in experiment [8], greater than 10 µM. In addition, the Ki is greater than 10 µM at D(2) dopamine receptor; greater than 10 µM on Histamine H1 receptor; 0.412 µM in [9]; 2.76 µM in experiment [10]; greater than 10 µM in experiment [11]; greater than 10 µM in experiment [12]. The Ki (at Glutamate NMDA receptor; in experiment [13]) was greater than 10 µM each time.
Turning to `C=Cc1ccc(N2CCN(Cc3c[nH]c4ncccc34)CC2)cc1`, the Ki in experiment [1] was 0.509 µM; on D(3) dopamine receptor, greater than 10 µM; on D(1B) dopamine receptor it was greater than 10 µM; in [2] it was greater than 10 µM; in [3] it was greater than 10 µM; on D(1A) dopamine receptor it was greater than 10 µM. In addition, the Ki was greater than 10 µM in experiment [4]; greater than 10 µM in experiment [5]; greater than 10 µM in [6]; greater than 10 µM in experiment [7]; 0.0028 µM at D(4) dopamine receptor; greater than 10 µM in experiment [8]. Further, the Ki is greater than 10 µM at D(2) dopamine receptor; greater than 10 µM at Histamine H1 receptor; greater than 10 µM in experiment [9]; 3.97 µM in experiment [10]; greater than 10 µM in experiment [11]; greater than 10 µM in [12]. Besides, the Ki (at Glutamate NMDA receptor; in experiment [13]) was greater than 10 µM in each case.
With `COc1ccccc1N1CCN(Cc2c[nH]c3ncccc23)CC1`, the Ki in [1] was 2.31 µM; at D(3) dopamine receptor, 0.668 µM; at D(1B) dopamine receptor, greater than 10 µM; in [2] it was greater than 10 µM; in experiment [3], greater than 10 µM; at D(1A) dopamine receptor, greater than 10 µM. In addition, the inhibition constant Ki in experiment [4] is greater than 10 µM; in experiment [5], 7.38 µM; in experiment [6] it was greater than 10 µM; in experiment [7], greater than 10 µM; on D(4) dopamine receptor, 0.0014 µM; in experiment [8], greater than 10 µM. Further, the Ki was 0.438 µM on D(2) dopamine receptor; greater than 10 µM on Histamine H1 receptor; 0.103 µM in [9]; 0.406 µM in experiment [10]; greater than 10 µM in [11]; greater than 10 µM in experiment [12]. For the same compound, the inhibition constant (Ki) (at Glutamate NMDA receptor; in experiment [13]) was greater than 10 µM in each case.
